Experimental data reported in patent publication US20090203707A1, “METHODS FOR TREATING PAIN” (priority 2008, published 2009).
“Also recorded” adds a separate entry of the source. Read-outs that look alike come from different tables or passages of the source.

How the values were obtained:
[1] = Solubility of Ranolazine in aqueous solutions versus pH; format: physicochemical
[2] = tested on: endogenous TTX-S INa in ND7-23 cells; experiment: cells; format: cell-based, rat DRG/mouse neuroblastoma hybrid; settings: V0, recorded in the absence of TTX
[3] = tested on: hNav1.7 and rNav1.8 Na+ channels; experiment: Rate of development of slow inactivation, stated for hNav1.7 and rNav1.8 together; format: cell-based; settings: 30 μM
Protocol: The time dependence of development of inactivation of hNav1.7 (−20 mV, FIG. 7A, n=4-5 cells) and rNav1.8 (+20 mV, FIG. 7B, n=4-5 cells) INa in the absence (▪) and presence (□) of 30 μM ranolazine is shown in FIG. 7. For control conditions, the progressive decay of currents with increasing conditioning pulse duration reflects entry of channels into inactivated states. The development of slow inactivation of hNav1.7+β1 and rNav1.8 channels could be fit with double and triple exponential functions, respectively (see Table 6, control, Development of slow inactivation).
As shown previously, (Vijayaragavan et al (2001) J. Neurosci 21:7909-18) the onset of slow inactivation of Nav1.8 channels is rapid when compared to Nav1.7 channels (˜fourfold, see Table 6, control, τF=10.78 and 43.97 msec for Nav1.8 and Nav1.7 channels, respectively). […] The time constants for development of inactivation of hNav1.7 (n=4 cells) and rNav1.8 (n=5 cells) INa with a depolarizing prepulse to −40 mV (hNav1.7) or −20 mV (rNav1.8) in the absence and presence of 30 μM ranolazine are given in Table 6.

[4] = tested on: CFA-induced mechanical allodynia; experiment: CFA-induced mechanical allodynia, electro-von Frey withdrawal threshold; format: in vivo, Male Sprague Dawley rats
[5] = target: SCN9A (Nav1.7) Na+ channel, α- and β1 subunits, in HEK293 cells (Homo sapiens, UniProt Q15858); experiment: Whole-cell patch clamp, Nav1.7 peak INa in HEK293 cells (Example 1); settings: for Mean amplitude of Nav1.7 peak INa, fraction of control: −100 mV to 0 mV, 50 msec
[6] = tested on: Male Sprague Dawley rats
[7] = target: hNav1.7+β1 subunits in HEK293 cells (Homo sapiens, UniProt Q15858); experiment: Whole-cell patch clamp, hNav1.7 INa in HEK293 cells (Example 2); settings: for Kd: estimated from shift of steady-state inactivation curve (Bean equation); for IC50: IC50 value, block of Nav1.7 INa
[8] = target: rNav1.8 Na+ channels in ND7-23 cells (Rattus norvegicus, UniProt Q62968); experiment: Whole-cell patch clamp, rNav1.8 INa in ND7-23 cells (Example 2); settings: for Use-dependent block of rNav1.8 INa: 40 pulses of 10 msec to +50 mV; for Kd: estimated from shift of steady-state inactivation curve (Bean equation)
[9] = tested on: CFA-induced thermal hyperalgesia; experiment: CFA-induced thermal hyperalgesia, paw withdrawal latency; format: in vivo, Male Sprague Dawley rats; settings: day 3 after CFA
[10] = holding −100 mV to 0 mV, 0.1 Hz
[11] = male, Sprague Dawley, rat, in vivo, po
[12] = 10 μM, 10 sec prepulse, n=4 cells
[13] = 10 μM, 100 msec prepulse, n=4 cells
[14] = Dissociation constant for inactivated state (Kdi)
[15] = Dissociation constant for rested state (Kdr)
[16] = 10 μM, 10 sec prepulse, n=6 cells

rNav1.8 Na+ channels in ND7-23 cells, sequence (Q62968 whole entry): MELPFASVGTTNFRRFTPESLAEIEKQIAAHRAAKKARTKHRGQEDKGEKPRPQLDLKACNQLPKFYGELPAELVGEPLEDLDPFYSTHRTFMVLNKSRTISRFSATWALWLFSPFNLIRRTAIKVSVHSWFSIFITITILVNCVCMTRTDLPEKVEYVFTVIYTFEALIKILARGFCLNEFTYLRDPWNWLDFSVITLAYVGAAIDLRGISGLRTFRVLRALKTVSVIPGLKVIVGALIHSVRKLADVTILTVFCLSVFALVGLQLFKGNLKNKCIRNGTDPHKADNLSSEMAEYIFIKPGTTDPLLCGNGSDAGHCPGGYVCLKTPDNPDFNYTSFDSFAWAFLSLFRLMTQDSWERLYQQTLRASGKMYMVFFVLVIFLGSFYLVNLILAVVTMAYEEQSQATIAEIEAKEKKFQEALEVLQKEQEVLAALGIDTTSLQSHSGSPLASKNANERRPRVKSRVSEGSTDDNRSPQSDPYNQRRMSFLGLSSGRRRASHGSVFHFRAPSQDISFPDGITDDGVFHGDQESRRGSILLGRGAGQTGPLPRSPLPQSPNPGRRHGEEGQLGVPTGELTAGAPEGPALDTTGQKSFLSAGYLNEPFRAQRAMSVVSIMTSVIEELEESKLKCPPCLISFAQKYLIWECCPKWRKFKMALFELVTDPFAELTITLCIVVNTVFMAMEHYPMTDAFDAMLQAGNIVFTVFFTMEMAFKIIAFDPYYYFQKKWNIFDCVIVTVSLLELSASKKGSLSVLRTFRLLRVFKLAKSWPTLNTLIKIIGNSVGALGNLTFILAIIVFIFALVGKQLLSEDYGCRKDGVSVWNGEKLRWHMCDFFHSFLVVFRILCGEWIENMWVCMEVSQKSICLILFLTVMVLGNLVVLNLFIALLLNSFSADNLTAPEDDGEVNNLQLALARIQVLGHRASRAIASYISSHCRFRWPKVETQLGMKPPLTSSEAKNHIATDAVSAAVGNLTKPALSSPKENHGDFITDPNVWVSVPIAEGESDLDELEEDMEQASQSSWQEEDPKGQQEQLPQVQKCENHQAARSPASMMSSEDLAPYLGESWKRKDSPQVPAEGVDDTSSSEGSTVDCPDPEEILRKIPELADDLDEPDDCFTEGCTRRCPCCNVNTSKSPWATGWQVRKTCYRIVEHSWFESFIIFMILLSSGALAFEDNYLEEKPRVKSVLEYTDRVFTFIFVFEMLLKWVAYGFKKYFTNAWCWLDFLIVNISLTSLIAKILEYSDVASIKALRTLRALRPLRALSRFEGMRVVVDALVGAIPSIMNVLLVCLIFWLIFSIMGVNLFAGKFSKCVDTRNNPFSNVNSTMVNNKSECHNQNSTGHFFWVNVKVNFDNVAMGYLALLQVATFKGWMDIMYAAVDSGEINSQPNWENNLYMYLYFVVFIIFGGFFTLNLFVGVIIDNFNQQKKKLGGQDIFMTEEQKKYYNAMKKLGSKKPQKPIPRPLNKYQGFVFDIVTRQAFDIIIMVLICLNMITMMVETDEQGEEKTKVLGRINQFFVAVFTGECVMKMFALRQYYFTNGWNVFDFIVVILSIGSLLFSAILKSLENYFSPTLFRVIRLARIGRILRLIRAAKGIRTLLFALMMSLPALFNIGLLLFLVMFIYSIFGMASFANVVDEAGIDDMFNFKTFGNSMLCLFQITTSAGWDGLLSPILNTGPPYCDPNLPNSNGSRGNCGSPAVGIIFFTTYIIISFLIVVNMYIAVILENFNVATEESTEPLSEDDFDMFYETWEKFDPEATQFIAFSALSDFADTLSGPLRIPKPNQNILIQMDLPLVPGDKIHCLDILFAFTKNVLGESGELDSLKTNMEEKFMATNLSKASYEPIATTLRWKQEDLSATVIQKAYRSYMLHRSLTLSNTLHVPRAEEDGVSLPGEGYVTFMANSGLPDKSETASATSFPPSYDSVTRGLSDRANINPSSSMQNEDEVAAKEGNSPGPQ
SCN9A (Nav1.7) Na+ channel, α- and β1 subunits, in HEK293 cells, sequence (Q15858 whole entry): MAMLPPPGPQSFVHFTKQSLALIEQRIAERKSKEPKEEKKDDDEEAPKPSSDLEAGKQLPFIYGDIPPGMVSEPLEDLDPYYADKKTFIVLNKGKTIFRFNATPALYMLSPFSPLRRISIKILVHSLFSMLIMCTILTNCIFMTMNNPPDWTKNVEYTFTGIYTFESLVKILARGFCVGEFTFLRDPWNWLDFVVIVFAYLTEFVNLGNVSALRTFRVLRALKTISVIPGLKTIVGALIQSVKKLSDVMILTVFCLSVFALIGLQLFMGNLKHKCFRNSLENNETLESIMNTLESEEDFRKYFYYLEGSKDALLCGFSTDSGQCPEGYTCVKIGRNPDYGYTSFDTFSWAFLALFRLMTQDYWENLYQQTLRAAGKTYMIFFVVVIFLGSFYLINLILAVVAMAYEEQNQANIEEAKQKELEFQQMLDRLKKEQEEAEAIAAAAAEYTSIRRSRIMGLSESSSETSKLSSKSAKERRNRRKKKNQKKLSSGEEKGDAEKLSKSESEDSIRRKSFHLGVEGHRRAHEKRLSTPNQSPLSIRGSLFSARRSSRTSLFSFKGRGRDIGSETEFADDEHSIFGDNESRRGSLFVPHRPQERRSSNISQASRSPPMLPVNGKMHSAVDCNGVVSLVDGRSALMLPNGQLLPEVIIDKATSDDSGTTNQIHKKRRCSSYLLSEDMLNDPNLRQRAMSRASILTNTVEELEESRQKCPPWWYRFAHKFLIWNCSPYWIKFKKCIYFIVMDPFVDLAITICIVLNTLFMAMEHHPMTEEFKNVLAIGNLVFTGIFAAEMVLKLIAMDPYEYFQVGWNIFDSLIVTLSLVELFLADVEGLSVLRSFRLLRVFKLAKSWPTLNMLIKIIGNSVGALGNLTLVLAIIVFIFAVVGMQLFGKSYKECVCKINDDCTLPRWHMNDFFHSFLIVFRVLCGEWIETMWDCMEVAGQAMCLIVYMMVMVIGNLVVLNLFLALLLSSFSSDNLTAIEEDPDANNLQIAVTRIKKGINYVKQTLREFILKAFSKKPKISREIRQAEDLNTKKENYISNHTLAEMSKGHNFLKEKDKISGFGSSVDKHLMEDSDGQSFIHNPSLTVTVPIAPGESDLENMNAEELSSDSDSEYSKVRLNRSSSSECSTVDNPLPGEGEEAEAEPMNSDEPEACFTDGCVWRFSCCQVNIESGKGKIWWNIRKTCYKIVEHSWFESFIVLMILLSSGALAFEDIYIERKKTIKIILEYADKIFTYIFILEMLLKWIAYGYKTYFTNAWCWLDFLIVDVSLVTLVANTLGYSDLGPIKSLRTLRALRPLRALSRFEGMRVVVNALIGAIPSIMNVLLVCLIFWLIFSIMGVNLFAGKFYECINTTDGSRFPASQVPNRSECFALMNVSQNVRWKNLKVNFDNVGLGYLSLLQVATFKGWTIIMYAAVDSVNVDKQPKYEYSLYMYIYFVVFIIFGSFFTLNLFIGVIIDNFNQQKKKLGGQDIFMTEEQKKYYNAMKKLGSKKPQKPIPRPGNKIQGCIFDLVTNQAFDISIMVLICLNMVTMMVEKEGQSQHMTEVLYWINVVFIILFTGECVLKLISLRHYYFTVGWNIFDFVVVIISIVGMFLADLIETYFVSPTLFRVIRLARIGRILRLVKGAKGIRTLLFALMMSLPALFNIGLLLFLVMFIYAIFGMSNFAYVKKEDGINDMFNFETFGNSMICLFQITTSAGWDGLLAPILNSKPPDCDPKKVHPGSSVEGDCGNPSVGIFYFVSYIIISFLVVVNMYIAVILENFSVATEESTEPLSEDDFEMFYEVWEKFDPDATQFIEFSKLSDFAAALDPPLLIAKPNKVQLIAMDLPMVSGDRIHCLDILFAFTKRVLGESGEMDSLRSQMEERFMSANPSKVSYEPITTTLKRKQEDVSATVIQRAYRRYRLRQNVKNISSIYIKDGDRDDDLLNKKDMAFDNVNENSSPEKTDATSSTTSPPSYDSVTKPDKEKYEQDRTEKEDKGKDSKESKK
SCN9A (Nav1.7) Na+ channel, α- and β1 subunits, in HEK293 cells, sequence (Q07699 19-218 partner): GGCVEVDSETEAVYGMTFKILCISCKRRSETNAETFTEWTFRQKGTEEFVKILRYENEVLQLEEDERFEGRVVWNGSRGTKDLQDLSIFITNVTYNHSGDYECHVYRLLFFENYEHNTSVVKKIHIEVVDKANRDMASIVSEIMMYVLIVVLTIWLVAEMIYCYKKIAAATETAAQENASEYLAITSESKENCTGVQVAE
hNav1.7+β1 subunits in HEK293 cells, sequence (Q15858 whole entry): as the sequence (Q15858 whole entry) above
hNav1.7+β1 subunits in HEK293 cells, sequence (Q07699 19-218 partner): as the sequence (Q07699 19-218 partner) above

## COc1ccccc1OCC(O)CN1CCN(CC(=O)Nc2c(C)cccc2C)CC1 (racemic) [Ranolazine, (±)-N-(2,6-dimethylphenyl)-4-[2-hydroxy-3-(2-methoxyphenoxy)-propyl]-1-piperazineacetamide]
[1]; Solution pH 4.81
  USP Solubility Class: Freely Soluble
[1]; Solution pH 4.89
  USP Solubility Class: Soluble
[1]; Solution pH 4.90
  USP Solubility Class: Soluble
[1]; Solution pH 5.04
  USP Solubility Class: Soluble
[1]; Solution pH 5.35
  USP Solubility Class: Sparingly Soluble
[1]; Solution pH 5.82
  USP Solubility Class: Slightly soluble
[1]; Solution pH 6.46
  USP Solubility Class: Slightly soluble
[1]; Solution pH 6.73
  USP Solubility Class: Very slightly soluble
[1]; Solution pH 7.08
  USP Solubility Class: Very slightly soluble
[1]; Solution pH 7.59 (unbuffered water)
  USP Solubility Class: Very slightly soluble
[1]; Solution pH 7.79
  USP Solubility Class: Very slightly soluble
[1]; Solution pH 12.66
  USP Solubility Class: Very slightly soluble
[2]; ND7/23, read-out: IC50 value, block of TTX-S INa
  IC50: 9.05 ± 0.56 µM
[2]
  Hill Coefficient, block of TTX-S INa: [1.15 ± 0.08]
[3]; −20 mV (hNav1.7), +20 mV (rNav1.8)
  Rate of development of slow inactivation, faster than control: 2-5 fold
[3]; −40 mV (hNav1.7), −20 mV (rNav1.8)
  Rate of development of slow inactivation, faster than control: 4-10 fold
[4]; i.p. 10, 20, 50 mg/kg, 30 minutes after dosing, day 3 after CFA
  Effect on mechanical allodynia (paw sensitivity to mechanical stimulation): clearly reduced paw sensitivity to mechanical stimulation in a dose-dependent fashion; also recorded: dose dependent reduction in mechanical allodynia
[4]; oral gavage, plateau to the analgesic response
  Dose at which maximum analgesic response was achieved: 100 mg/kg
[4]; p.o. 200 mg/kg
  Analgesic effect at highest oral dose: non-significant trend toward a reduction in analgesic effect
[4]; p.o. 20, 50, 100, 200 mg/kg, 1 hour after gavage, day 3 after CFA
  Effect on mechanical allodynia: dose dependent reduction in mechanical allodynia
[4]; p.o., no additional benefit at higher doses (FIG. 11 legend)
  Optimum oral dosing for reduction of mechanical allodynia: 50 mg/kg
[5]; 1 μM, 0.1 Hz
  Mean amplitude of Nav1.7 peak INa, fraction of control: 0.9114
[5]; 3 μM, 0.1 Hz
  Mean amplitude of Nav1.7 peak INa, fraction of control: 0.7275
[5]; 10 μM, 0.1 Hz
  Mean amplitude of Nav1.7 peak INa, fraction of control: 0.4692
[5]; 30 μM, 0.1 Hz
  Mean amplitude of Nav1.7 peak INa, fraction of control: 0.327
[5]; 100 μM, 40 pulses −100 to 0 mV, 2, 5, 20 or 200 msec, 5 Hz
  Block of Nav1.7 peak INa at end of pulse train (pulse 40): ~82.72±0.71%
[5]; [10]
  p of logistic fit (Hill coefficient nH) for block of Nav1.7 peak INa: 0.8368
  x0 of logistic fit (IC50) for block of Nav1.7 peak INa: 10.3585 μM
[6]; doses of 100 mg/kg (i.p.)
  Death: 50%
[6]; male, Sprague Dawley, rat, in vivo, ip
  Doses at which adverse effects were noted: ≥ 100 mg/kg
[6]; [11]
  Time of onset of adverse pulmonary event after drug administration: approximately 1 hour
  Time to resolution of adverse pulmonary effect after gavage: ≤ 24 h
[6]; rat, in vivo, po
  Adverse event: respiratory strider
[7]; 1 μM
  Inactivation V1/2 (steady-state intermediate, 1 sec prepulse): −78.97 ± 3.09 mV
  Inactivation slope factor k (1 sec prepulse): 4.80 ± 0.21 mV/e-fold
[7]; 3 μM
  Inactivation V1/2 (steady-state intermediate, 1 sec prepulse): −84.44 ± 3.64 mV
  Inactivation slope factor k (1 sec prepulse): 4.76 ± 0.11 mV/e-fold
[7]; 10 μM
  Activation V1/2: −33.96 ± 2.06 mV
  Activation slope factor k: 4.77 ± 0.32 mV/e-fold
  Inactivation V1/2 (steady-state intermediate, 1 sec prepulse): −86.99 ± 2.86 mV
  Inactivation slope factor k (1 sec prepulse): 4.56 ± 0.1 mV/e-fold
[7]; [12]
  V1/2 of steady-state slow inactivation: −61.39±3.54
  k of steady-state slow inactivation: 14.22±2.14
[7]; [13]
  V1/2 of steady-state fast inactivation: −86.15±3.62
  k of steady-state fast inactivation: 7.55±0.82
[7]; 30 μM
  Inactivation V1/2 (steady-state intermediate, 1 sec prepulse): −89.07 ± 5.41 mV
  Inactivation slope factor k (1 sec prepulse): 5.15 ± 0.31 mV/e-fold
[7]; 30 μM, at −20 mV
  Development of slow inactivation, AF: 0.24 ± 0.02
  Development of slow inactivation, AS: 0.56 ± 0.01
  Development of slow inactivation, τF: 9.14 ± 2.49 ms
  Development of slow inactivation, τS: 1657.71 ± 180.23 ms
[7]; 30 μM, at −20 mV, n=4 cells
  Time constant of INa decay (single exponential): 0.68 ± 0.15 ms
[7]; 30 μM, at −40 mV
  Development of slow inactivation, AF: 0.30 ± 0.02
  Development of slow inactivation, AS: 0.67 ± 0.02
  Development of slow inactivation, τF: 23.99 ± 2.92 ms
  Development of slow inactivation, τS: 1845.75 ± 129.03 ms
[7]; [14]
  Kd: 0.47 µM
[7]; [15]
  Kd: 12.1 µM
[7]; V0, holding potential −120 mV
  IC50: 10.4 ± 1.25 µM
  Hill Coefficient, block of Nav1.7 INa: [0.84 ± 0.09]
[7]; V0.5, holding potential −70 mV
  IC50: 3.25 ± 0.17 µM
  Hill Coefficient, block of Nav1.7 INa: [1.33 ± 0.08]
[8]
  IC50: 21.5 ± 3.01 µM
[8]; 1 μM
  Inactivation V1/2 (steady-state intermediate, 1 sec prepulse): −42.75 ± 3.93 mV
  Inactivation slope factor K (1 sec prepulse): 7.38 ± 0.93 mV/e-fold
[8]; 3 μM
  Inactivation V1/2 (steady-state intermediate, 1 sec prepulse): −47.61 ± 4.56 mV
  Inactivation slope factor K (1 sec prepulse): 7.14 ± 0.61 mV/e-fold
[8]; 10 μM
  Activation V1/2: 4.71 ± 2.58 mV
  Activation slope factor K: 8.55 ± 1.62 mV/e-fold
  Inactivation V1/2 (steady-state intermediate, 1 sec prepulse): −57.88 ± 5.73 mV
  Inactivation slope factor K (1 sec prepulse): 7.59 ± 0.79 mV/e-fold
[8]; [16]
  V1/2 of steady-state slow inactivation: −54.57±3.69
  k of steady-state slow inactivation: 8.38±0.76
[8]; [13]
  V1/2 of steady-state fast inactivation: −40.66±3.23
  k of steady-state fast inactivation: 11.45±1.21
[8]; 30 μM
  Inactivation V1/2 (steady-state intermediate, 1 sec prepulse): −59.52 ± 2.18 mV
  Inactivation slope factor K (1 sec prepulse): 7.59 ± 1.09 mV/e-fold
[8]; 30 μM, 1 Hz
  Use-dependent block of rNav1.8 INa: 60.20±2.04%
[8]; 30 μM, 5 Hz
  Use-dependent block of rNav1.8 INa: 67.96±4.68%
[8]; 30 μM, 10 Hz
  Use-dependent block of rNav1.8 INa: 70.16±2.09%
[8]; 30 μM, at +20 mV
  Development of slow inactivation, AF: 0.53 ± 0.07
  Development of slow inactivation, AI: 0.25 ± 0.07
  Development of slow inactivation, AS: 0.09 ± 0.02
  Development of slow inactivation, τF: 5.59 ± 1.08 ms
  Development of slow inactivation, τI: 34.11 ± 14.14 ms
  Development of slow inactivation, τS: 703.24 ± 373.82 ms
[8]; 30 μM, at +20 mV, n=4 cells
  Time constant of INa decay (single exponential): 1.60 ± 0.04 ms
[8]; 30 μM, at −20 mV
  Development of slow inactivation, AF: 0.52 ± 0.05
  Development of slow inactivation, AI: 0.30 ± 0.06
  Development of slow inactivation, AS: 0.18 ± 0.03
  Development of slow inactivation, τF: 22.75 ± 2.31 ms
  Development of slow inactivation, τI: 98.08 ± 13.65 ms
  Development of slow inactivation, τS: 1203.00 ± 337.50 ms
[8]; 100 μM, 3, 5, 20 or 200 msec pulses to +50 mV, 5 Hz
  Steady-state use-dependent block of rNav1.8 INa: 71.69±0.85%
[8]; [14]
  Kd: 0.64 µM
[8]; [15]
  Kd: 22.8 µM
[8]; IC50 value, block of Nav1.8 INa, V0.5, holding potential −40 mV
  IC50: 4.33 ± 0.52 µM
[8]; V0, holding potential −100 mV
  Hill Coefficient, block of Nav1.8 INa: [0.90 ± 0.11]
[8]; V0.5, holding potential −40 mV
  Hill Coefficient, block of Nav1.8 INa: [0.89 ± 0.09]
[9]; i.p. 10, 20, 50 mg/kg, 30 minutes after dosing
  Effect on paw withdrawal from thermal stimulation: no significant effect on paw sensitivity was observed; also recorded: no significant effect of treatment on paw withdrawal from thermal stimulation
[9]; p.o. 20, 50, 100, 200 mg/kg, 1 hour after gavage
  Effect on paw withdrawal from thermal stimulation: no significant effect of treatment on paw withdrawal from thermal stimulation
